Measured values taken from ChEMBL document CHEMBL3399975, “Rational design of specific binding hairpin Py-Im polyamides targeting human telomere sequences” (Bioorg Med Chem, 2015).

What was measured:
[1] = Binding affinity to human telomeric sequence in HBS-EP buffer at pH 7.4 at 25 degC by SPR analysis
[2] = Binding affinity to 5'-GGTTAGAGTTAGG-3'/3'-CCAATCTCAATCC-5' (unknown origin) assessed as change in melting temperature at pH 7 by UV-Vis spectrophotometry
[3] = Selectivity ratio of KD for 5'-Biotin-GGTTAGAGTTAGGTTTTCCTAACTCTAACC-3' (unknown origin) to KD for human telomeric sequence
[4] = Selectivity ratio of KD for 5'-Biotin-GGTTAAGGTTAGGTTTTCCTAACCTTAACC-3' (unknown origin) to KD for human telomeric sequence
[5] = Binding affinity to 5'-Biotin-GGTTAAGGTTAGGTTTTCCTAACCTTAACC-3' (unknown origin) in HBS-EP buffer at pH 7.4 at 25 degC by SPR analysis
[6] = Binding affinity to 5'-GGTTAAGGTTAGG-3'/3'-CCAATTCCAATCC-5' (unknown origin) assessed as change in melting temperature at pH 7 by UV-Vis spectrophotometry
Homo sapiens = species on record: Homo sapiens; experiment: Binding affinity to human telomeric sequence assessed as change in melting temperature at pH 7 by UV-Vis spectrophotometry
[7] = Binding affinity to 5'-Biotin-GGTTAGAGTTAGGTTTTCCTAACTCTAACC-3' (unknown origin) in HBS-EP buffer at pH 7.4 at 25 degC by SPR analysis

Row | Kd [1] [nM] | ΔTm [2] [°C] | Ratio [3] | Ratio [4] | Kd [5] [nM] | ΔTm [6] [°C] | ΔTm (Homo sapiens) [°C] | Kd [7] [nM] | SMILES
1 | 0.93 |  |  |  |  |  |  |  | CN(CCCNC(=O)CCNC(=O)c1nc(NC(=O)c2cc(NC(=O)c3cc(NC(=O)c4cc(NC(=O)[C@@H](CCNC(=O)c5cc(NC(=O)c6nc(NC(=O)c7nccn7C)cn6C)cn5C)NC(=O)COCCOCCNC(=O)c5nc(NC(=O)c6cc(NC(=O)c7cc(NC(=O)c8cc(NC(=O)[C@H](N)CCNC(=O)c9cc(NC(=O)c%10nc(NC(=O)c%11nccn%11C)cn%10C)cn9C)cn8C)cn7C)cn6C)cn5C)cn4C)cn3C)cn2C)cn1C)CCCNS(=O)(=O)c1ccc(C2=c3cc4c5c(c3Oc3c2cc2c6c3CCCN6CCC2)CCC[N+]=5CCC4)c(S(=O)(=O)[O-])c1
2 | 1.56 | 18.3 | 32.8 | 13.3 | 20.7 | 24.8 | 27.7 | 51.1 | CN(CCCN)CCCNC(=O)CCNC(=O)c1cc(NC(=O)c2cc(NC(=O)c3cc(NC(=O)c4cc(NC(=O)[C@H](N)CCNC(=O)c5cc(NC(=O)c6nc(NC(=O)c7nc(NC(=O)c8nccn8C)cn7C)cn6C)cn5C)cn4C)cn3C)cn2C)cn1C
3 | 1.76 | 22.4 | 17.3 | 0.36 | 0.627 | 29.3 | 27.8 | 30.4 | CN(CCCN)CCCNC(=O)CCNC(=O)c1nc(NC(=O)c2cc(NC(=O)c3cc(NC(=O)c4cc(NC(=O)[C@H](N)CCNC(=O)c5cc(NC(=O)c6nc(NC(=O)c7nccn7C)cn6C)cn5C)cn4C)cn3C)cn2C)cn1C
4 | 0.431 | 21.6 | 24.6 | 0.013 | 0.00561 | 31.6 | 27.4 | 10.6 | CN(CCCN)CCCNC(=O)CCNC(=O)c1cc(NC(=O)c2cc(NC(=O)c3cc(NC(=O)c4cc(NC(=O)[C@H](N)CCNC(=O)c5cc(NC(=O)c6nc(NC(=O)c7nccn7C)cn6C)cn5C)cn4C)cn3C)cn2C)cn1C
